From US7652053B2, “Diaminocycloalkane MCH receptor antagonists” (Hoffmann-La Roche Inc., priority 2006, dated 2010)
Where a name gives a salt, the structure may show the parent alone. Read-outs that look alike come from different tables or passages of the source.

Target: T1, recombinant human MCHR1 receptors (Homo sapiens, UniProt Q99705)
T1 construct: expressed in transfected cells
Test: MCHR Filter Binding Assay (competition binding with [Phe13[125I]Tyr19]-MCH)
Procedure: Competition binding assay was conducted in MultiScreen […] glass fiber type B filter plates (96-well, Millipore). The MultiScreen plates were pretreated by incubation with 0.5% polyvinylpyrrolidone solution containing 1% BSA and 0.1% tween-20 for 12 hours at 4° C. and washed five times with ice-cold 10 mM Tris buffer, pH 7.5, followed by incubation with 200 µL of binding buffer (50 mM HEPES, 2.5 mM CaCl2, 0.05 mM BSA, 1 mM phenanthroline, 0.03 mM Triton X-100) for 5 min at room temperature and plates were drained before the binding reactions. The binding assay was performed by pre-incubating 2.8 µg of membranes from CHO-K1 cells stably expressing the recombinant human MCHR1 receptors, and various concentrations (final concentration 0.059 nM to 45 µM) of unlabeled MCH or antagonists in binding buffer for 15 min at room temperature. The competition reaction was started by adding final concentration (0.2 nM) [Phe^13[^125I]Tyr^19]-MCH (PerkinElmer). The final volume of the reaction was 90 µL per well. After 60 min incubation time at room temperature the reaction was stopped by rapid filtration over 96-well filter plates. Following termination of the binding reactions, the filters were washed with ice-cold binding buffer (4×200 µL), and were air dried for 30 min. Scintillation cocktail (60 µL) was added to each well and radioactivity bound to the plates was determined using a Micro-beta plate reader (Wallace/PerkinElmer). The inhibition potency of antagonist was expressed as IC50, the concentration of compound at which the binding of radio labeled MCH to MCHR1 was inhibited by 50%.

[1] = membranes from CHO-K1 cells stably expressing human MCHR1, 0.2 nM radiolabeled MCH, read-out: Activity in MCHR binding assays (IC50 class)
[2] = inhibition of binding of MCH to MCHR
[3] = inhibition of binding of MCH to MCHR, read-out: MCHR IC50

T1 sequence (Q99705 whole entry): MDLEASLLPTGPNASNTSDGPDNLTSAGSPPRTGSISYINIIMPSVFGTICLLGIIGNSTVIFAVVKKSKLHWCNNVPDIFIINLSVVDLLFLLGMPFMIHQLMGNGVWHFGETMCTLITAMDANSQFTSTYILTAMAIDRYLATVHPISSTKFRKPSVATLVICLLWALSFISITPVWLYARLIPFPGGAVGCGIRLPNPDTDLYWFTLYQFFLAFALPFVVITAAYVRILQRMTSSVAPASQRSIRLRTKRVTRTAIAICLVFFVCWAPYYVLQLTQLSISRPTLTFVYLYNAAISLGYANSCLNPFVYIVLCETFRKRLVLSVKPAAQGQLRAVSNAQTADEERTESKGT

| Structure (SMILES) | IC50 [1] | Ki [2] | IC50 [3] |
| --- | --- | --- | --- |
| CC(C)(O)c1nc2cc(Cl)ccc2n1[C@H]1CC[C@@H](NC[C@@H]2Cc3ccc(C#N)cc3C2)CC1 [Example 22, cis-(R)-2-({4-[5-Chloro-2-(1-hydroxy-1-methyl-ethyl)-benzoimidazol-1H-yl]-cyclohexylamino}-methyl)-indan-5-carbonitrile] | < 10 nM | – | – |
| Cc1ccc2c(c1)nc(C(C)(C)O)n2[C@H]1CC[C@H](NCC2Cc3ccc(Cl)cc3C2)CC1 (stereo partly drawn) [Example 21, trans-2-(1-{4-[(5-Chloro-indan-2-ylmethyl)-amino]-cyclohexyl}-5-methyl-1H-benzoimidazol-2-yl)-propan-2-ol] | 100 to 1000 nM | – | – |
| Cc1ccc2c(c1)nc(C)n2[C@@H]1CC[C@H](NC[C@H]2Cc3ccc(Br)cc3C2)C1 [Example 5, cis-(S)-(5-Bromo-indan-2-ylmethyl)-[3-(2,5-dimethyl-benzoimidazol-1-yl)-cyclopentyl]-amine] | 100 to 1000 nM | – | – |
| Cc1ccc2c(c1)nc(C)n2[C@H]1CC[C@@H](NCC2Cc3ccc(C(F)(F)F)cc3C2)CC1 (stereo partly drawn) [Example 12, cis-[4-(2,5-Dimethyl-benzoimidazol-1-yl)-cyclohexyl]-(5-trifluoromethyl-indan-2-ylmethyl)-amine] | 100 to 1000 nM | – | – |
| Cc1ccc2c(c1)nc(C)n2[C@H]1CC[C@@H](NC[C@H]2Cc3ccc(C#N)cc3C2)CC1 [Example 15, cis-(S)-2-{[4-(2,5-Dimethyl-benzoimidazol-1-yl)-cyclohexylamino]-methyl}-indan-5-carbonitrile] | 10 to 100 nM | – | – |
| Cc1ccc2c(c1)nc(C(C)(C)O)n2[C@H]1CC[C@H](NCC2Cc3ccc(F)cc3C2)CC1 (stereo partly drawn) [Example 19, trans-2-(1-{4-[(5-Fluoro-indan-2-ylmethyl)-amino]-cyclohexyl}-5-methyl-1H-benzoimidazol-2-yl)-propan-2-ol] | 100 to 1000 nM | – | – |
| Cc1ccc2c(c1)nc(C)n2[C@H]1CC[C@@H](NC2Cc3ccccc3C2)CC1 [Example 1, cis-4-(2,5-Dimethyl-benzoimidazol-1-yl)-cyclohexyl]-indan-2-yl-amine; hydrochloride] | 100 to 1000 nM | – | – |
| Cc1ccc2c(c1)nc(C)n2[C@H]1CC[C@@H](NC[C@H]2Cc3ccc(Br)cc3C2)CC1 [Example 4, cis-(S)-(5-Bromo-indan-2-ylmethyl)-[4-(2,5-dimethyl-benzoimidazole-1-yl)-cyclohexyl]-amine hydrochloride] | 10 to 100 nM | – | – |
| CC(C)(O)c1nc2cc(Cl)ccc2n1[C@H]1CC[C@@H](NCC2Cc3ccc(Cl)cc3C2)CC1 (stereo partly drawn) [Example 10, cis-2-(5-Chloro-1-{4-[(5-chloro-indan-2-ylmethyl)-amino]-cyclohexyl}-1H-benzoimidazol-2-yl)-propan-2-ol] | 10 to 100 nM | – | – |
| Cc1ccc2c(c1)nc(C(C)(C)O)n2[C@H]1CC[C@H](NC[C@H]2Cc3ccc(C#N)cc3C2)CC1 [Example 17, trans-(S)-2-({4-[2-(1-Hydroxy-1-methyl-ethyl)-5-methyl-benzoimidazol-1-yl]-cyclohexylamino}-methyl)-indan-5-carbonitrile] | 100 to 1000 nM | – | – |
| Cc1ccc2c(c1)nc(C)n2[C@@H]1CC[C@@H](NCC2Cc3ccc(Cl)cc3C2)C1 (relative stereo) [Example 3, trans-(5-Chloro-indan-2-ylmethyl)-[3-(2,5-dimethyl-benzoimidazol-1-yl)-cyclopentyl]-amine] | 100 to 1000 nM | – | – |
| CC(=O)N(C[C@H]1Cc2ccc(C#N)cc2C1)[C@H]1CC[C@@H](n2c(C(C)(C)O)nc3cc(Cl)ccc32)CC1 [Example 23, cis-(S)—N-{4-[5-Chloro-2-(1-hydroxy-1-methyl-ethyl)-benzoimidazol-1-yl]-cyclohexyl}-N-(5-cyano-indan-2-ylmethyl)-acetamide] | 100 to 1000 nM | 154 nM | 193 nM |

Next, values leading:

| IC50 [1] | Ki [2] | IC50 [3] | Structure (SMILES) |
| --- | --- | --- | --- |
| 100 to 1000 nM | – | – | CC(C)(O)c1nc2cc(Cl)ccc2n1[C@H]1CC[C@@H](NCC2Cc3ccc(C(F)(F)F)cc3C2)CC1 (relative stereo) [Example 8, cis-2-(5-Chloro-1-{4-[(5-trifluoromethyl-indan-2-ylmethyl)-amino]-cyclohexyl}-1H-benzoimidazol-2-yl)-propan-2-ol] |
| 10 to 100 nM | – | – | Cc1nc2cc(C#N)ccc2n1[C@H]1CC[C@@H](NCC2Cc3ccc(Cl)cc3C2)CC1 (stereo partly drawn) [Example 25, cis-1-{4-[(5-Chloro-indan-2-ylmethyl)-amino]-cyclohexyl}-2-methyl-1H-benzoimidazole-5-carbonitrile] |
| 100 to 1000 nM | – | – | Cc1ccc2c(c1)nc(C)n2[C@@H]1CC[C@@H](NC[C@H]2Cc3ccc(Br)cc3C2)C1 [Example 2, trans-(S)-(5-Bomo-indan-2-ylmethyl)-[3-(2,5-dimethyl-benzoimidazol-1-yl)-cyclopentyl]-amine] |
| < 10 nM | – | – | Cc1ccc2c(c1)nc(C(C)(C)O)n2[C@H]1CC[C@@H](NC[C@H]2Cc3ccc(C#N)cc3C2)CC1 [Example 16, cis-(S)-2-({4-[2-(1-Hydroxy-1-methyl-ethyl)-5-methyl-benzoimidazol-1-yl]-cyclohexylamino}-methyl)-indan-5-carbonitrile] |
| < 10 nM | 2 nM | 3 nM | Cc1nc2cc(F)ccc2n1[C@H]1CC[C@@H](NC[C@H]2Cc3ccc(C#N)cc3C2)CC1 [Example 26, cis-(S)-2-{[4-(5-Fluoro-2-methyl-benzoimidazol-1-yl)-cyclohexylamino]-methyl}-indan-5-carbonitrile] |
| 10 to 100 nM | – | – | CC(C)(O)c1nc2cc(Cl)ccc2n1[C@H]1CC[C@@H](NCC2Cc3ccccc3C2)CC1 [Example 9, cis-2-(5-Chloro-1-{4-[(indan-2-ylmethyl)-amino]-cyclohexyl}-1H-benzoimidazol-2-yl)-propan-2-ol] |
| 10 to 100 nM | – | – | Cc1ccc2c(c1)nc(C)n2[C@H]1CC[C@@H](NCC2Cc3ccc(Cl)cc3C2)CC1 (stereo partly drawn) [Example 11, cis-(5-Chloro-indan-2-ylmethyl)-[4-(2,5-dimethyl-benzoimidazol-1-yl)-cyclohexyl]-amine] |
| < 10 nM | 1.8 nM | 2.2 nM | CC(C)(O)c1nc2cc(Cl)ccc2n1[C@H]1CC[C@@H](NC[C@H]2Cc3ccc(C#N)cc3C2)CC1 [Example 14, cis-(S)-2-({4-[5-Chloro-2-(1-hydroxy-1-methyl-ethyl)-benzoimidazol-1-yl]-cyclohexylamino}-methyl)-indan-5-carbonitrile] |
| 10 to 100 nM | – | – | Cc1ccc2c(c1)nc(C(C)(C)O)n2[C@H]1CC[C@@H](NCC2Cc3ccc(F)cc3C2)CC1 (stereo partly drawn) [Example 18, cis-2-(1-{4-[(5-Fluoro-indan-2-ylmethyl)-amino]-cyclohexyl}-5-methyl-1H-benzoimidazol-2-yl)-propan-2-ol] |
| 100 to 1000 nM | – | – | Cc1ccc2c(c1)nc(C)n2[C@H]1CC[C@@H](NCC2Cc3ccccc3C2)CC1 [Example 13, cis-[4-(2,5-Dimethyl-benzoimidazol-1-yl)-cyclohexyl]-indan-2-ylmethyl-amine] |
| 10 to 100 nM | 19 nM | 24 nM | CC(C)(O)c1nc2cc(Cl)ccc2n1[C@H]1CC[C@@H](NC[C@H]2Cc3ccc(Br)cc3C2)CC1 [Example 7, cis-(S)-2-(1-{4-[(5-Bromo-indan-2-ylmethyl)-amino]-cyclohexyl}-5-chloro-1H-benzoimidazol-2-yl)-propan-2-ol] |
| 10 to 100 nM | – | – | CC(C)(O)c1nc2cc(Cl)ccc2n1[C@H]1CC[C@@H](NC[C@@H]2Cc3ccc(Br)cc3C2)CC1 [Example 24, cis-(R)-2-(1-{4-[(5-Bromo-indan-2-ylmethyl)-amino]-cyclohexyl}-5-chloro-1H-benzoimidazol-2-yl)-propan-2-ol] |
| 10 to 100 nM | 21 nM | 26 nM | Cc1ccc2c(c1)nc(C(C)(C)O)n2[C@H]1CC[C@@H](NCC2Cc3ccc(Cl)cc3C2)CC1 (stereo partly drawn) [Example 20, cis-2-(1-{4-[(5-Chloro-indan-2-ylmethyl)-amino]-cyclohexyl}-5-methyl-1H-benzoimidazol-2-yl)-propan-2-ol] |
| 10 to 100 nM | – | – | Cc1ccc2c(c1)nc(C)n2[C@H]1CC[C@@H](NC2Cc3ccc(Cl)cc3C2)CC1 (stereo partly drawn) [Example 6, cis-(5-Chloro-indan-2-yl)-[4-(2,5-dimethyl-benzoimidazol-1-yl)-cyclohexyl]-amine; hydrochloride] |
